From patent US20230266302A1, “SYNTHESIS AND USE OF N-BENZYL SULFONAMIDES” (THE UNIVERSITY OF TULSA, priority 2020, published 2023)

What follows are molecules tested on PC3 (prostate cancer) (assay: ATP level assay (CellTiter-Glo), percent of control). Conditions: 2 h; compound alone, 100 uM, two hour incubation, control DMSO; read-out: POC (percent of control) PC3.
Type: cell-based

| SMILES | activity at 100 µM [%] |
| --- | --- |
| Cc1ccc(S(=O)(=O)NCc2nccs2)cc1 [Compound 19, 4-methyl-N-(1,3-thiazol-2-ylmethyl)benzenesulfonamide] | 108 |

Same assay, conditions: compound 100 uM + 2DG (about 10-20 mM), two hour incubation

| SMILES | POC (percent of control) PC3 |
| --- | --- |
| Cc1ccc(S(=O)(=O)NCc2nccs2)cc1 [Compound 19, 4-methyl-N-(1,3-thiazol-2-ylmethyl)benzenesulfonamide] | 127.1% of control |

Same assay, conditions: compound 100 uM + rotenone (approximately 1.25 μM), two hour incubation

| SMILES | POC (percent of control) PC3 |
| --- | --- |
| Cc1ccc(S(=O)(=O)NCc2nccs2)cc1 [Compound 19, 4-methyl-N-(1,3-thiazol-2-ylmethyl)benzenesulfonamide] | 98.9% of control |

The molecules below were run on HDF (normal cells) in the same assay as above. Conditions: 2 h; compound alone, 100 uM, two hour incubation, control DMSO; read-out: POC (percent of control) HDF.
Type: cell-based

| SMILES | activity at 100 µM [%] |
| --- | --- |
| Cc1ccc(S(=O)(=O)NCc2nccs2)cc1 [Compound 19, 4-methyl-N-(1,3-thiazol-2-ylmethyl)benzenesulfonamide] | 92.5 |

Same assay, conditions: compound 100 uM + 2DG (about 10-20 mM), two hour incubation

| SMILES | POC (percent of control) HDF |
| --- | --- |
| Cc1ccc(S(=O)(=O)NCc2nccs2)cc1 [Compound 19, 4-methyl-N-(1,3-thiazol-2-ylmethyl)benzenesulfonamide] | 98.9% of control |

Same assay, conditions: compound 100 uM + rotenone (approximately 1.25 μM), two hour incubation

| SMILES | POC (percent of control) HDF |
| --- | --- |
| Cc1ccc(S(=O)(=O)NCc2nccs2)cc1 [Compound 19, 4-methyl-N-(1,3-thiazol-2-ylmethyl)benzenesulfonamide] | 87.3% of control |

These molecules were tested on HeLa (cervical cancer) in the same assay as above. Conditions: Homo sapiens, HeLa, 2 h; compound alone, 100 uM, two hour incubation, control DMSO; read-out: POC (percent of control) HeLa.
Type: cell-based

| SMILES | activity at 100 µM [%] |
| --- | --- |
| Cc1ccc(S(=O)(=O)NCc2nccs2)cc1 [Compound 19, 4-methyl-N-(1,3-thiazol-2-ylmethyl)benzenesulfonamide] | 104 |

Same assay, conditions: compound 100 uM + 2DG (about 10-20 mM), two hour incubation

| SMILES | POC (percent of control) HeLa |
| --- | --- |
| Cc1ccc(S(=O)(=O)NCc2nccs2)cc1 [Compound 19, 4-methyl-N-(1,3-thiazol-2-ylmethyl)benzenesulfonamide] | 94.8% of control |

Same assay, conditions: compound 100 uM + rotenone (approximately 1.25 μM), two hour incubation

| SMILES | POC (percent of control) HeLa |
| --- | --- |
| Cc1ccc(S(=O)(=O)NCc2nccs2)cc1 [Compound 19, 4-methyl-N-(1,3-thiazol-2-ylmethyl)benzenesulfonamide] | 109.3% of control |

These molecules were tested on SkBr3 (breast cancer) in the same assay as above. Conditions: Homo sapiens, SK-BR-3, 2 h; compound alone, 100 uM, two hour incubation, control DMSO; read-out: POC (percent of control) SkBr3.
Type: cell-based

| SMILES | activity at 100 µM [%] |
| --- | --- |
| Cc1ccc(S(=O)(=O)NCc2nccs2)cc1 [Compound 19, 4-methyl-N-(1,3-thiazol-2-ylmethyl)benzenesulfonamide] | 119 |

Same assay, conditions: compound 100 uM + 2DG (about 10-20 mM), two hour incubation

| SMILES | POC (percent of control) SkBr3 |
| --- | --- |
| Cc1ccc(S(=O)(=O)NCc2nccs2)cc1 [Compound 19, 4-methyl-N-(1,3-thiazol-2-ylmethyl)benzenesulfonamide] | 105.9% of control |

Same assay, conditions: compound 100 uM + rotenone (approximately 1.25 μM), two hour incubation

| SMILES | POC (percent of control) SkBr3 |
| --- | --- |
| Cc1ccc(S(=O)(=O)NCc2nccs2)cc1 [Compound 19, 4-methyl-N-(1,3-thiazol-2-ylmethyl)benzenesulfonamide] | 108.6% of control |

The molecules below were run on NCI-H196 (lung cancer) in the same assay as above. Conditions: NCI-H196, 2 h; compound alone, 100 uM, two hour incubation, control DMSO; read-out: POC (percent of control) NCI-H196.
Type: cell-based

| SMILES | activity at 100 µM [%] |
| --- | --- |
| Cc1ccc(S(=O)(=O)NCc2nccs2)cc1 [Compound 19, 4-methyl-N-(1,3-thiazol-2-ylmethyl)benzenesulfonamide] | 117 |

Same assay, conditions: compound 100 uM + 2DG (about 10-20 mM), two hour incubation

| SMILES | POC (percent of control) NCI-H196 |
| --- | --- |
| Cc1ccc(S(=O)(=O)NCc2nccs2)cc1 [Compound 19, 4-methyl-N-(1,3-thiazol-2-ylmethyl)benzenesulfonamide] | 107.3% of control |

Same assay, conditions: compound 100 uM + rotenone (approximately 1.25 μM), two hour incubation

| SMILES | POC (percent of control) NCI-H196 |
| --- | --- |
| Cc1ccc(S(=O)(=O)NCc2nccs2)cc1 [Compound 19, 4-methyl-N-(1,3-thiazol-2-ylmethyl)benzenesulfonamide] | 94.3% of control |

The molecules below were run on MDA-MB (breast cancer) in the same assay as above. Conditions: 2 h; compound alone, 100 uM, two hour incubation, control DMSO; read-out: POC (percent of control) MDA-MB.
Type: cell-based

| SMILES | activity at 100 µM [%] |
| --- | --- |
| Cc1ccc(S(=O)(=O)NCc2nccs2)cc1 [Compound 19, 4-methyl-N-(1,3-thiazol-2-ylmethyl)benzenesulfonamide] | 104 |

Same assay, conditions: compound 100 uM + 2DG (about 10-20 mM), two hour incubation

| SMILES | POC (percent of control) MDA-MB |
| --- | --- |
| Cc1ccc(S(=O)(=O)NCc2nccs2)cc1 [Compound 19, 4-methyl-N-(1,3-thiazol-2-ylmethyl)benzenesulfonamide] | 89.5% of control |

Same assay, conditions: compound 100 uM + rotenone (approximately 1.25 μM), two hour incubation

| SMILES | POC (percent of control) MDA-MB |
| --- | --- |
| Cc1ccc(S(=O)(=O)NCc2nccs2)cc1 [Compound 19, 4-methyl-N-(1,3-thiazol-2-ylmethyl)benzenesulfonamide] | 112% of control |

What follows are molecules tested on MCF10A (non-cancerous breast) in the same assay as above. Conditions: Homo sapiens, MCF-10A, 2 h; compound alone, 100 uM, two hour incubation, control DMSO; read-out: POC (percent of control) MCF10A.
Type: cell-based

| SMILES | activity at 100 µM [%] |
| --- | --- |
| Cc1ccc(S(=O)(=O)NCc2nccs2)cc1 [Compound 19, 4-methyl-N-(1,3-thiazol-2-ylmethyl)benzenesulfonamide] | 83.9 |

Same assay, conditions: compound 100 uM + 2DG (about 10-20 mM), two hour incubation

| SMILES | POC (percent of control) MCF10A |
| --- | --- |
| Cc1ccc(S(=O)(=O)NCc2nccs2)cc1 [Compound 19, 4-methyl-N-(1,3-thiazol-2-ylmethyl)benzenesulfonamide] | 95.8% of control |

Same assay, conditions: compound 100 uM + rotenone (approximately 1.25 μM), two hour incubation

| SMILES | POC (percent of control) MCF10A |
| --- | --- |
| Cc1ccc(S(=O)(=O)NCc2nccs2)cc1 [Compound 19, 4-methyl-N-(1,3-thiazol-2-ylmethyl)benzenesulfonamide] | 119.8% of control |

These molecules were tested on MCF7 (breast cancer) in the same assay as above. Conditions: Homo sapiens, MCF7, 2 h; compound alone, 100 uM, two hour incubation, control DMSO; read-out: POC (percent of control) MCF7.
Type: cell-based

| SMILES | activity at 100 µM [%] |
| --- | --- |
| Cc1ccc(S(=O)(=O)NCc2nccs2)cc1 [Compound 19, 4-methyl-N-(1,3-thiazol-2-ylmethyl)benzenesulfonamide] | 134 |

Same assay, conditions: compound 100 uM + 2DG (about 10-20 mM), two hour incubation

| SMILES | POC (percent of control) MCF7 |
| --- | --- |
| Cc1ccc(S(=O)(=O)NCc2nccs2)cc1 [Compound 19, 4-methyl-N-(1,3-thiazol-2-ylmethyl)benzenesulfonamide] | 104% of control |

Same assay, conditions: compound 100 uM + rotenone (approximately 1.25 μM), two hour incubation

| SMILES | POC (percent of control) MCF7 |
| --- | --- |
| Cc1ccc(S(=O)(=O)NCc2nccs2)cc1 [Compound 19, 4-methyl-N-(1,3-thiazol-2-ylmethyl)benzenesulfonamide] | 92.1% of control |

Each molecule was assayed on T47D (breast cancer) in the same assay as above. Conditions: Homo sapiens, T47D, 2 h; compound alone, 100 uM, two hour incubation, control DMSO; read-out: POC (percent of control) T47D.
Type: cell-based

| SMILES | activity at 100 µM [%] |
| --- | --- |
| Cc1ccc(S(=O)(=O)NCc2nccs2)cc1 [Compound 19, 4-methyl-N-(1,3-thiazol-2-ylmethyl)benzenesulfonamide] | 91.5 |

Same assay, conditions: compound 100 uM + 2DG (about 10-20 mM), two hour incubation

| SMILES | POC (percent of control) T47D |
| --- | --- |
| Cc1ccc(S(=O)(=O)NCc2nccs2)cc1 [Compound 19, 4-methyl-N-(1,3-thiazol-2-ylmethyl)benzenesulfonamide] | 87.4% of control |

Same assay, conditions: compound 100 uM + rotenone (approximately 1.25 μM), two hour incubation

| SMILES | POC (percent of control) T47D |
| --- | --- |
| Cc1ccc(S(=O)(=O)NCc2nccs2)cc1 [Compound 19, 4-methyl-N-(1,3-thiazol-2-ylmethyl)benzenesulfonamide] | 86.7% of control |

The molecules below were run on H293 (kidney cancer) in the same assay as above. Conditions: 2 h; compound alone, 100 uM, two hour incubation, control DMSO; read-out: POC (percent of control) H293.
Type: cell-based

| SMILES | activity at 100 µM [%] |
| --- | --- |
| Cc1ccc(S(=O)(=O)NCc2nccs2)cc1 [Compound 19, 4-methyl-N-(1,3-thiazol-2-ylmethyl)benzenesulfonamide] | 82.2 |

Same assay, conditions: compound 100 uM + 2DG (about 10-20 mM), two hour incubation

| SMILES | POC (percent of control) H293 |
| --- | --- |
| Cc1ccc(S(=O)(=O)NCc2nccs2)cc1 [Compound 19, 4-methyl-N-(1,3-thiazol-2-ylmethyl)benzenesulfonamide] | 87.2% of control |

Same assay, conditions: compound 100 uM + rotenone (approximately 1.25 μM), two hour incubation

| SMILES | POC (percent of control) H293 |
| --- | --- |
| Cc1ccc(S(=O)(=O)NCc2nccs2)cc1 [Compound 19, 4-methyl-N-(1,3-thiazol-2-ylmethyl)benzenesulfonamide] | 79.1% of control |

Each molecule was assayed on BxPC3 (pancreatic cancer) in the same assay as above. Conditions: Homo sapiens, BXPC-3, 2 h; compound alone, 100 uM, two hour incubation, control DMSO; read-out: POC (percent of control) BxPC3.
Type: cell-based

| SMILES | activity at 100 µM [%] |
| --- | --- |
| Cc1ccc(S(=O)(=O)NCc2nccs2)cc1 [Compound 19, 4-methyl-N-(1,3-thiazol-2-ylmethyl)benzenesulfonamide] | 96.2 |

Same assay, conditions: compound 100 uM + 2DG (about 10-20 mM), two hour incubation

| SMILES | POC (percent of control) BxPC3 |
| --- | --- |
| Cc1ccc(S(=O)(=O)NCc2nccs2)cc1 [Compound 19, 4-methyl-N-(1,3-thiazol-2-ylmethyl)benzenesulfonamide] | 98.4% of control |

Same assay, conditions: compound 100 uM + rotenone (approximately 1.25 μM), two hour incubation

| SMILES | POC (percent of control) BxPC3 |
| --- | --- |
| Cc1ccc(S(=O)(=O)NCc2nccs2)cc1 [Compound 19, 4-methyl-N-(1,3-thiazol-2-ylmethyl)benzenesulfonamide] | 107.2% of control |
